According to patent US11419852B2, “Beta-lactam compounds or salts thereof for use in long-acting prevention or treatment of a glucose metabolism disorder” (GLYCOLYSIS BIOMED CO., LTD., priority 2019, dated 2022):
Marks after values point to notes of the source that are not given here.

Columns and labels:
db/db mice = assay: Plasma biochemical parameters (AST, ALT, BUN, Cr, HbA1c); type: in vivo; details: Ex 3: db/db mice, daily dosing 3 weeks at doses of Table 10; week 9
Experimental: Inflammatory markers such as serum aspartate aminotransferase (AST), alanine aminotransferase (ALT), blood urea nitrogen (BUN), creatinine (Cr), and hemoglobin Alc (HbAlc) were measured using a BMC-Hitachi 717 chemistry auto analyzer.

[1] = Body weight of mice recorded weekly; type: in vivo
Experimental: Four to five weeks old db/db mice (BKS.Cg-Dock7^m+/+Lepr^db/JNarl) and m/m mice (BKS.Cg-Dock7^m+/Dock7^m+) were obtained from National Laboratory Animal Center ([…], Taiwan). […] PMI Nutrition International, Brentwood, Mo.) and water ad libitum. […] The mouse body weight (bw) and the amounts of water and food intake were recorded weekly for the entire study period.

For CN(C)C(=N)N=C(N)N [Met, metformin], the ALT (db/db mice) was 116 ± 12^d U/L, the AST (db/db mice) was 194 ± 17^e U/L and the BUN (db/db mice) was 37 ± 1^b mg/dL. For the same compound, the Creatinine (db/db mice) was 0.517 ± 0.01^e mg/dL, the HbA1c (db/db mice) was 6.7 ± 0.2^e % and the Body weight ([1]; Ex 2 G3 db/db, Met oral 0.3 mg/g bw/day, dosing 6 weeks, Baseline) was 31.17 ± 0.47^b. The Body weight ([1]; Ex 2 G3 db/db, Met oral 0.3 mg/g bw/day, dosing 6 weeks, week 1) was 30.81 ± 0.48^b, the Body weight ([1]; Ex 2 G3 db/db, Met oral 0.3 mg/g bw/day, dosing 6 weeks, week 2) was 32.61 ± 0.46^bc and the Body weight ([1]; Ex 2 G3 db/db, Met oral 0.3 mg/g bw/day, dosing 6 weeks, week 3) was 35.97 ± 0.57^cd. For the same compound, the Body weight ([1]; Ex 2 G3 db/db, Met oral 0.3 mg/g bw/day, dosing 6 weeks, week 4) was 37.47 ± 0.79^c, the Body weight ([1]; Ex 2 G3 db/db, Met oral 0.3 mg/g bw/day, dosing 6 weeks, week 5) was 40.15 ± 0.93^c and the Body weight ([1]; Ex 2 G3 db/db, Met oral 0.3 mg/g bw/day, dosing 6 weeks, week 6) was 41.82 ± 0.98^d. For the same compound, the Body weight ([1]; Ex 2 G3 db/db, Met oral 0.3 mg/g bw/day, dosing 6 weeks, week 7) was 42.38 ± 1.25^d, the Body weight ([1]; Ex 2 G3 db/db, Met oral 0.3 mg/g bw/day, dosing 6 weeks, week 8) was 43.04 ± 1.54^d and the Body weight ([1]; Ex 2 G3 db/db, Met oral 0.3 mg/g bw/day, dosing 6 weeks, week 9) was 43.68 ± 1.58^d. For the same compound, the Body weight ([1]; Ex 2 G3 db/db, Met oral 0.3 mg/g bw/day, dosing 6 weeks, week 10) was 43.40 ± 1.4^b, the Body weight ([1]; Ex 2 G3 db/db, Met oral 0.3 mg/g bw/day, dosing 6 weeks, week 11) was 44.15 ± 1.37^b and the Body weight ([1]; Ex 2 G3 db/db, Met oral 0.3 mg/g bw/day, dosing 6 weeks, week 12) was 45.24 ± 1.37^b. For the same compound, the Body weight ([1]; Ex 2 G3 db/db, Met oral 0.3 mg/g bw/day, dosing 6 weeks, week 13) was 44.68 ± 1.6^b, the Body weight ([1]; Ex 3: db/db mice, daily dosing 3 weeks at doses of Table 10, Baseline) was 28.9 ± 1^b and the Body weight ([1]; Ex 3: db/db mice, daily dosing 3 weeks at doses of Table 10, Final) was 37.0 ± 1^c. For the same compound, the Body weight ([1]; Ex 3: db/db mice, daily dosing 3 weeks at doses of Table 10, Week 3) was 35.9 ± 1^d, the Body weight ([1]; Ex 3: db/db mice, daily dosing 3 weeks at doses of Table 10, Week 6 (stopped for 3 weeks)) was 39.5 ± 1^c and the Body weight ([1]; Ex 3: db/db mice, daily dosing 3 weeks at doses of Table 10, Week 9 (stopped for 6 weeks)) was 39.7 ± 1^c.
